Values after ≈ are worked out from the molar mass of the structure shown.
Columns and labels:
Assay type in all cases: functional
[1] = system: Helicobacter pylori; assay: Antimicrobial activity against Helicobacter pylori SS1 at 100 ug/disk after 4 days by disk diffusion method; details: SS1, 96 h, read-out: IZ
[2] = system: Helicobacter pylori; assay: Antimicrobial activity against Helicobacter pylori ATCC 43504 at 100 ug/disk after 4 days by disk diffusion method; details: ATCC 43504, 96 h, read-out: IZ
[3] = system: Helicobacter pylori; assay: Antimicrobial activity against Helicobacter pylori Sa-2 isolate after 4 days by twofold plate dilution method; details: 96 h
[4] = system: Helicobacter pylori; assay: Antimicrobial activity against Helicobacter pylori Sa-3 isolate after 4 days by twofold plate dilution method; details: 96 h
[5] = system: Helicobacter pylori; assay: Antimicrobial activity against Helicobacter pylori Sa-1 isolate after 4 days by twofold plate dilution method; details: 96 h
[6] = system: Helicobacter pylori; assay: Antimicrobial activity against Clarithromycin-resistant Helicobacter pylori TS648 after 4 days by twofold plate dilution method; details: 96 h
[7] = system: Helicobacter pylori; assay: Antimicrobial activity against Helicobacter pylori ATCC 43504 after 4 days by twofold plate dilution method; details: ATCC 43504, 96 h
[8] = system: Helicobacter pylori; assay: Antimicrobial activity against Helicobacter pylori SS1 after 4 days by twofold plate dilution method; details: SS1, 96 h
[9] = system: Helicobacter pylori; assay: Antimicrobial activity against Clarithromycin-resistant Helicobacter pylori TS281 after 4 days by twofold plate dilution method; details: 96 h
[10] = system: Helicobacter pylori; assay: Antimicrobial activity against Helicobacter pylori TPH30 after 4 days by twofold plate dilution method; details: 96 h
[11] = system: Helicobacter pylori; assay: Antimicrobial activity against Helicobacter pylori SS1 at 250 ng/disk after 4 days by disk diffusion method
[12] = system: Helicobacter pylori; assay: Antimicrobial activity against Helicobacter pylori ATCC 43504 at 250 ng/disk after 4 days by disk diffusion method

| SMILES | zone of inhibition at 100 µg/disc [1] | zone of inhibition at 100 µg/disc [2] | MIC [3] | MIC [4] | MIC [5] | MIC [6] | MIC [7] | MIC [8] | MIC [9] | MIC [10] | inhibition zone (IZ) [11] | inhibition zone (IZ) [12] |
| --- | --- | --- | --- | --- | --- | --- | --- | --- | --- | --- | --- | --- |
| C/C(=C/CC[C@@]1(C)[C@H]2CC[C@]1(C)[C@H](O)C2)CO | 11.1 mm | 27.1 mm |  |  |  |  |  |  |  |  |  |  |
| C=C(CC/C=C(\C)CO)[C@@H]1CC=C(C)CC1 | 10.6 mm | 11.9 mm | 62.5 µg/mL (≈ 284 µM) | 31.3 µg/mL (≈ 142 µM) | 31.3 µg/mL (≈ 142 µM) | 31.3 µg/mL (≈ 142 µM) | 62.5 µg/mL (≈ 284 µM) | 125 µg/mL (≈ 567 µM) | 62.5 µg/mL (≈ 284 µM) | 62.5 µg/mL (≈ 284 µM) |  |  |
| C/C(=C/CC[C@]1(C)[C@H]2CC[C@]1(C)[C@@H](O)C2)CO | 22.8 mm | 28.9 mm |  |  |  |  |  |  |  |  |  |  |
| C=C1[C@H]2CC[C@H](C2)[C@]1(C)CCC=C(CO)CO | 10.4 mm | 21.1 mm |  |  |  |  |  |  |  |  |  |  |
| C/C(=C/CCC(C)(O)c1ccc(C)cc1)CO (stereo not drawn) | 11.2 mm | 24.9 mm |  |  |  |  |  |  |  |  |  |  |
| C=C(CC/C=C(/C)CO)[C@H]1CC[C@@](C)(O)CC1 |  | 8.9 mm |  |  |  |  |  |  |  |  |  |  |
| C=C1[C@H]2CC[C@H](C2)[C@@]1(C)CC/C=C(/C)CO | 13.5 mm | 27.2 mm | 7.8 µg/mL (≈ 35.4 µM) | 7.8 µg/mL (≈ 35.4 µM) | 7.8 µg/mL (≈ 35.4 µM) | 7.8 µg/mL (≈ 35.4 µM) | 7.8 µg/mL (≈ 35.4 µM) | 31.3 µg/mL (≈ 142 µM) | 7.8 µg/mL (≈ 35.4 µM) | 7.8 µg/mL (≈ 35.4 µM) |  |  |
| CC1(CCC=C(CO)CO)C2CC3C(C2)C31C (stereo not drawn) | 25.9 mm | 38.7 mm |  |  |  |  |  |  |  |  |  |  |
| C/C(=C/CC[C@@]1(C)C2CC[C@@](C)(C2)[C@@H]1O)CO | 15.5 mm | 27.6 mm |  |  |  |  |  |  |  |  |  |  |
| C/C(=C/CC[C@@]1(C)[C@@H]2CC[C@@H](C2)[C@@]1(C)O)CO | 16.8 mm | 20.1 mm |  |  |  |  |  |  |  |  |  |  |
| C/C(=C/CC[C@]1(C)C2C[C@@H]3[C@H](C2)C31C)CO | 11.5 mm | 21.6 mm | 31.3 µg/mL (≈ 142 µM) | 7.8 µg/mL (≈ 35.4 µM) | 7.8 µg/mL (≈ 35.4 µM) | 7.8 µg/mL (≈ 35.4 µM) | 15.6 µg/mL (≈ 70.8 µM) | 31.3 µg/mL (≈ 142 µM) | 15.6 µg/mL (≈ 70.8 µM) | 15.6 µg/mL (≈ 70.8 µM) |  |  |
| CC1(C)S[C@@H]2[C@H](NC(=O)[C@H](N)c3ccc(O)cc3)C(=O)N2[C@H]1C(=O)O [AMOXICILLIN] |  |  | 0.06 µg/mL (≈ 0.164 µM) | 0.25 µg/mL (≈ 0.684 µM) | 0.06 µg/mL (≈ 0.164 µM) | 0.13 µg/mL (≈ 0.356 µM) | 0.06 µg/mL (≈ 0.164 µM) | 0.25 µg/mL (≈ 0.684 µM) | 0.5 µg/mL (≈ 1.37 µM) | 0.25 µg/mL (≈ 0.684 µM) | 20.3 mm | 35.3 mm |
| CC[C@H]1OC(=O)[C@H](C)[C@@H](O[C@H]2C[C@@](C)(OC)[C@@H](O)[C@H](C)O2)[C@H](C)[C@@H](O[C@@H]2O[C@H](C)C[C@H](N(C)C)[C@H]2O)[C@](C)(OC)C[C@@H](C)C(=O)[C@H](C)[C@@H](O)[C@]1(C)O [CLARITHROMYCIN] |  |  | ≤ 0.06 µg/mL | ≤ 0.06 µg/mL | ≤ 0.06 µg/mL | 2 µg/mL (≈ 2.67 µM) | ≤ 0.06 µg/mL | ≤ 0.06 µg/mL | 32 µg/mL (≈ 42.8 µM) | ≤ 0.06 µg/mL |  |  |
